# In patent publication US20100179137A1, “PYRIDONE COMPOUND” (priority 2007, published 2010):
# Target: T1, rat EP4 receptor (Rattus norvegicus, UniProt P43114)
# T1 construct: expressed in transfected cells; host or cells: HEK293 cells, transient transfection with Lipofectamine 2000; membrane fraction used
# Test: Evaluation test on EP4 receptor affinity in rat ([3H]PGE2 receptor binding test)
# Conditions: [3H]PGE2 0.3 nM, membrane fraction of rat EP4 expressing HEK293 cells
# Procedure: A rat EP4 receptor cDNA was subcloned into an expression vector (pcDNA3.1-V5-His-topo, manufactured by Invitrogen Corporation) to prepare a rat EP4 expression vector. HEK293 cells were cultured in a collagen type I-treated 15 cm dish (manufactured by Asahi Techno Glass Co., Ltd.) to a confluence of 70%. An Opti-MEM culture medium at 1.2 mL/dish and a transfection reagent (Lipofectamine 2000, manufactured by Invitrogen Corporation) at 60 μL/dish were mixed, followed by being left to stand at room temperature for 5 minutes. Then, the rat EP4 receptor expression vector at 15 μg/dish was added thereto, followed by being left to stand at room temperature for 30 minutes. The liquid mixture of the transfection reagent was added into the dish, followed by culturing for 20 to 24 hours. The cell culture was carried out in a CO2 incubator (37° C., 5% CO2).
# The culture medium was removed by suction, 10 mL of cooled PBS was added thereto per 15 cm dish, and the cells were scraped using a cell scraper. After washed with cooled PBS (1,200 rpm, 4° C., 5 minutes), suspended in 6 mL/dish of cooled 20 mM Tris-HCl (pH 7.4; manufactured by Nacalai Tesque Inc., 5 mM EDTA included) and homogenized using a Polytron, the homogenate was centrifuged (26,000 rpm, 20 minutes, 4° C.). The obtained precipitate was resuspended in cooled 20 mM Tris-HCl and homogenized again using a Polytron, and the homogenate was centrifuged (26,000 rpm, 20 minutes, 4° C.). The obtained precipitate was resuspended in 50 mM HEPES (pH 7.5; manufactured by Dojindo Laboratories) at 1 mL per dish, homogenized using a Polytron, and freeze-stored at −80° C. as a membrane fraction. At this time, a part thereof was used for the measurement of the protein concentration. Measurement of the protein concentration was carried out using a Protein assay stain (manufactured by Bio-Rad Laboratories) in accordance with a standard Protocol as appended in duplicate.
# [^3H]PGE2 50 μL (final concentration 0.3 nM; manufactured by Perkin Elmer Co., Ltd.), 100 μL (20 μg/well) of the membrane fraction prepared from the rat EP4 expression cell, and 50 μL of a test compound were mixed in a 96-well microplate (manufactured by Sumitomo Bakelite Co., Ltd.), incubated at room temperature for 1 hour, then filtered by suction on a microplate (UniFilter-96 GF/B, manufactured by Perkin Elmer Co., Ltd.) using a cell harvester (FilterMate Harvester, manufactured by Perkin Elmer Co., Ltd.), and washed three times with 300 μL/well of a cooled assay buffer (50 mM HEPES, 10 mM MgCl2). Dilution of [^3H]PGE2 and the membrane fraction was carried out using the assay buffer, and dilution of the test compound and the unlabeled PGE2 was carried out using dimethyl sulfoxide and the assay buffer. The UniFilter-96 GF/B was treated by preliminarily washing twice with 200 μL/well of the cooled assay buffer. The UniFilter-96 GF/B after filtration was dried in a dryer overnight, 50 μL/well of a liquid scintillation cocktail (MicroScint20, manufactured by Perkin Elmer Co., Ltd.) was added thereto, and the radioactivity was then measured using a liquid scintillation counter for a microplate (TopCount, manufactured by Perkin Elmer Co., Ltd.). For measurement of the non-specific binding, an unlabeled PGE2 (final concentration 1 μM; manufactured by Cayman Chemical Company) was added. All of the measurements were carried out in duplicate, and the specific binding amount was determined by subtracting the non-specific binding amount from the total binding amount.
# According to the test method as described above, the rat EP4 receptor affinity (Ki) of the compound of the present invention was measured. […] In addition, Ex means Example Compound No.
# T1 sequence (P43114 whole entry): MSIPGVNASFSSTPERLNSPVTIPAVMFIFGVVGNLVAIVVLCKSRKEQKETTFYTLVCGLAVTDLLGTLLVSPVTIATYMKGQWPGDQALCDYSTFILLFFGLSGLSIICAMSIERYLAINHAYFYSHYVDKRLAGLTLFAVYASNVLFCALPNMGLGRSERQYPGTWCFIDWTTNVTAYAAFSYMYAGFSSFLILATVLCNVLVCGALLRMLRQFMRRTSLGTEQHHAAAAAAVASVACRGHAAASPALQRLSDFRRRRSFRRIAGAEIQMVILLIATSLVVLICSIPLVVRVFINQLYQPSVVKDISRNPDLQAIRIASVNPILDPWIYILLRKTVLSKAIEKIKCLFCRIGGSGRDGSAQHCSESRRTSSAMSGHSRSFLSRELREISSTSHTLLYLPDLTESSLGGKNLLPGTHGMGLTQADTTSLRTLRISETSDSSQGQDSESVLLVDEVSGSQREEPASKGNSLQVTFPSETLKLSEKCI
row,Compound,Ki [nM]
1,CCCc1cccc(OCc2c(Cl)cc(Cl)c(=O)n2CCc2ccc(C(=O)O)cc2)c1 [Example 171],1.1
2,CC(C)c1cccc(/C=C/c2c(Cl)cc(Cl)c(=O)n2CCc2ccc(C(=O)O)cc2)c1 [Example 91],9.4
3,CCOc1ccccc1CCc1c(Cl)cc(Cl)c(=O)n1CCc1ccc(C(=O)O)cc1 [Example 90],6.2
4,CCc1cccc(/C=C/c2c(Br)ccc(=O)n2CCc2ccc(C(=O)O)cc2)c1 [Example 124],4.4
5,COc1cccc(/C=C/c2c(Br)cc(Br)c(=O)n2CCCCCCC(=O)O)c1 [Example 15],35
6,CCc1cccc(OCc2c(C3CC3)cc(Cl)c(=O)n2CCc2ccc(C(=O)O)cc2)c1 [Example 139],8.2
7,O=C(O)c1ccc(CCn2c(/C=C/c3cccc(OC(F)(F)F)c3)c(C3CC3)cc(Cl)c2=O)cc1 [Example 120],7.9
8,O=C(O)c1ccc(CCn2c(/C=C/c3cccc(OC(F)(F)F)c3)c(Cl)ccc2=O)cc1 [Example 126],4.9
9,"COc1cccc(OCc2c(Br)cc(Br)c(=O)n2CCc2ccc(C(=O)O)cc2)c1 [Example 2, 4-(2-{3,5-dibromo-6-[(3-methoxyphenoxy)methyl]-2-oxopyridin-1(2H)-yl}ethyl)benzoic acid]",61
10,"COc1cccc(COc2c(Br)cc(Cl)cc2CCc2ccc(C(=O)O)cc2)c1 [4-(2-{3-bromo-5-chloro-2-[(3-methoxybenzyl)oxy]phenyl}ethyl)benzoic acid, reference compound]",27
11,CCc1cccc(/C=C/c2c(Cl)ccc(=O)n2CCc2ccc(C(=O)O)cc2)c1 [Example 125],7.5
12,"CC(C)c1cccc(OCc2c(Cl)cc(Cl)c(=O)n2CCc2ccc(C(=O)O)cc2)c1 [Example 1, 4-(2-{3,5-dichloro-6-[(3-isopropylphenoxy)methyl]-2-oxopyridin-1(2H)-yl}ethyl)benzoic acid]",2.8
13,O=C(O)c1ccc(CCn2c(/C=C/c3ccccc3OC(F)(F)F)c(Cl)cc(Cl)c2=O)cc1 [Example 106],30
14,CC(C)Oc1ccccc1OCc1c(Cl)cc(Cl)c(=O)n1CCc1ccc(C(=O)O)cc1 [Example 74],10
15,CCCOc1cccc(/C=C/c2c(Cl)cc(Cl)c(=O)n2CCc2ccc(C(=O)O)cc2)c1 [Example 99],1.7
16,"COc1cccc(/C=C/c2c(Br)cc(Br)c(=O)n2CCc2ccc(C(=O)O)cc2)c1 [Example 4, 4-(2-{3,5-dibromo-6-[(E)-2-(3-methoxyphenyl)vinyl]-2-oxopyridin-1(2H)-yl}ethyl)benzoic acid]",7.1
17,O=C(O)c1ccc(CCn2c(CCc3ccccc3OC(F)(F)F)c(Cl)cc(Cl)c2=O)cc1 [Example 350],19
18,O=C(O)c1ccc(CCn2c(CCc3cccc(OC(F)(F)F)c3)c(C3CC3)cc(Cl)c2=O)cc1 [Example 122],12

# System: hindlimb blood flow in anesthetized rat
# Test: Hindlimb blood flow increasing action in anesthetized rat
# Format: in vivo
# Conditions: oral, Wistar male rats
# Procedure: Wistar male rats were used. The test compound was orally administered, and after 2 hours, the hindlimb blood was measured using a laser blood flow imaging apparatus (PIM II, manufactured by Integral Corporation). At 20 minutes before the measurement, 60 mg/kg of pentobarbital was intraperitoneally administered to conduct anesthesia.
row,Compound,lowest effective dose causing a blood flow increasing action of 120% or more [mg/kg]
1,"COc1cccc(COc2c(Br)cc(Cl)cc2CCc2ccc(C(=O)O)cc2)c1 [4-(2-{3-bromo-5-chloro-2-[(3-methoxybenzyl)oxy]phenyl}ethyl)benzoic acid, reference compound]",3
